Laboratory results published in US11690850B2, “Inhibitors of receptor interacting protein kinase I for the treatment of disease” (Board of Regents, The University of Texas System, priority 2019, dated 2023).

Tests used:
RIPK1 = RIPK1 (Homo sapiens (Human), UniProt Q13546); test: ADP-Glo Kinase Assay; format: biochemical; conditions: 5 nM RIPK1 protein, 50 μM ATP, 6 hr reaction, average value across multiple runs
Experimental: In order to measure RIPK1 activity the ADP-Glo kinase assay (Promega, Catalog #V7002) was used to measure the conversion of ATP to ADP. This enzymatic assay was performed in a 384-well white, Optiplate (Perkin Elmer, Catalog #6007299) with assay buffer consisting of 50 mM HEPES pH 7.5 (Gibco, Catalog #15630-080), 50 mM NaCl (Teknova, Catalog #S0252), 30 mM MgCl2 (Ambion, Catalog #AM9530G), 1 mM DTT (Santa Cruz Biotechnology, Catalog #sc-29089), 0.05% BSA (Sigma, Catalog #A3059-50G) and 0.02% CHAPS (Sigma, Catalog #C5070-5G). Stock solutions of the test compounds were prepared in 100% DMSO (Sigma, Catalog #D2650) and serially diluted 1:3 using 100% DMSO. Compounds were additionally diluted 1:40 in assay buffer, and 2 μL/well were transferred to the assay plate. 4 μL/well (final concentration of 5 nM) of RIPK1 protein (SignalChem, Catalog #R07-11G-05) diluted in assay buffer and added to the assay plate followed by a 10 minute preincutation at room temperature. 4 μL/well of ATP (Promega, Catalog #V7002) (final concentration of 50 μM) diluted in assay buffer were then added to the assay plate followed by a 6 hr reaction time. Final concentrations of RIPK1 and ATP refer to a 10 μL volume. Luminescence was measured using a BioTek Synergy™ NEO plate reader. IC50 values were calculated using a four-parameter logistic curve fit using Genedata Screener software. Results are shown below in Table 4, where the average value across multiple runs is given.

[1] = system: human monocytic cell line U937; test: Human U937 Cellular Necroptosis Assay; format: cell-based; conditions: U-937; U937 cells stimulated with 25 ng/mL human TNFalpha and 25 μM z-VAD-FMK, 22 hr, viability by Cell Titer-Glo 2.0; average value across multiple runs; read-out: hU937 IC50
Experimental: Human U937 Cellular Necroptosis Assay
The human monocytic cell line U937 (CRL-1593.2) was purchased from ATCC. The cells were routinely maintained in RPMI-1640 Medium (Gibco, Catalog #11875-093) supplemented with 10% heat inactivated fetal bovine serum (Gibco, Catalog #16140-071), 100 units/mL penicillin and 100 μg/mL streptomycin (Gibco, Catalog #15140-122), in a humidified incubator (37° C., 5% CO2). For the assay, cells were resuspended in RPMI-1640 phenol red free Media (Gibco, Catalog #11835-030) supplemented with 10% fetal bovine serum (Sigma, Catalog #F2442), 100 units/mL penicillin and 100 ug/mL streptomycin. Cells were stimulated with 25 ng/mL human TNFalpha (Cell Sciences, Catalog #CSI15659B) and 25 μM z-VAD-FMK (R&D Systems, Catalog #FMK001) followed by seeding 5000 cells per well in a volume of 40 μL to a white, CulturPlate-384 (Perkin Elmer, Catalog #6007680). Stock solutions of the test compounds were prepared in 100% DMSO (Sigma, Catalog #D2650) and serially diluted 1:3 using 100% DMSO. Compounds were additionally diluted 1:40 in assay medium, and 10 μL/well was transferred to the plate. Following the compound addition the plate was incubated at 37° C. and 5% CO2 for 22 hr. After 22 hr, viability was assessed with the addition of 20 μL of Cell Titer-Glo 2.0 (Promega, Catalog #G9243). The tissue culture plate was shaken on an orbital shaker at 300 RPM for 15 minutes at room temperature in the dark. Luminescence was measured using a PerkinElmer Envision™ plate reader. IC50 values were calculated using a four-parameter logistic curve fit using Genedata Screener software. Results are shown below in Table 5, where the average value across multiple runs is given.

RIPK1, sequence (Q13546 1-327): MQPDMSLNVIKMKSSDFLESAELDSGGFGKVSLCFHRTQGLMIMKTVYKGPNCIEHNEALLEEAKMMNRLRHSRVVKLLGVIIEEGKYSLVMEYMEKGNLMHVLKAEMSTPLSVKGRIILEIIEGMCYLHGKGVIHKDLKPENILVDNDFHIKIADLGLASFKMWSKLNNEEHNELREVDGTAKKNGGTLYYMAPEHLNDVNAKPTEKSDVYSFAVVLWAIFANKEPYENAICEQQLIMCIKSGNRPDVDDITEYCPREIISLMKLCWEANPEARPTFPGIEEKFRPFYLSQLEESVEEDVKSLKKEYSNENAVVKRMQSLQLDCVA

SMILES: Cc1cc(=O)c(C(=O)Nc2cccc(Cl)c2F)nn1-c1ccccc1 [Example 1, N-(3-chloro-2-fluorophenyl)-6-methyl-4-oxo-1-phenyl-1,4-dihydropyridazine-3-carboxamide]
- IC50 (RIPK1): 32 nM
- IC50 [1]: 136 nM

SMILES: Cc1cc(=O)c(C(=O)Nc2cccc(Cl)c2F)nn1-c1ccccc1F [Example 8, N-(3-chloro-2-fluorophenyl)-1-(2-fluorophenyl)-6-methyl-4-oxo-1,4-dihydropyridazine-3-carboxamide]
- IC50 (RIPK1): 53 nM
- IC50 [1]: 172 nM

SMILES: Cc1cc(=O)c(C(=O)Nc2cccc(Cl)c2F)nn1-c1cc(F)ccc1F [Example 9, N-(3-chloro-2-fluorophenyl)-1-(2,5-difluorophenyl)-6-methyl-4-oxo-1,4-dihydropyridazine-3-carboxamide]
- IC50 (RIPK1): 78 nM
- IC50 [1]: 170 nM

SMILES: Cc1cc(=O)c(C(=O)Nc2cccc(Cl)c2F)nn1-c1cccc(Cl)c1 [Example 17, N-(3-chloro-2-fluorophenyl)-1-(3-chlorophenyl)-6-methyl-4-oxo-1,4-dihydropyridazine-3-carboxamide]
- IC50 (RIPK1): 52 nM
- IC50 [1]: 631 nM

SMILES: Cc1cc(=O)c(C(=O)Nc2c(Br)cccc2C(C)C)nn1-c1ccccc1 [Example 24, N-(2-bromo-6-isopropylphenyl)-6-methyl-4-oxo-1-phenyl-1,4-dihydropyridazine-3-carboxamide]
- IC50 (RIPK1): 489 nM
- IC50 [1]: 2660 nM

SMILES: Cc1cccc(C2CC2)c1NC(=O)c1nn(-c2ccccc2)c(C)cc1=O [Example 26, N-(2-cyclopropyl-6-methylphenyl)-6-methyl-4-oxo-1-phenyl-1,4-dihydropyridazine-3-carboxamide]
- IC50 (RIPK1): 668 nM
- IC50 [1]: 3170 nM

SMILES: CCN1C(=O)[C@@H](NC(=O)c2nn(-c3ccccc3)c(C)cc2=O)COc2cccnc21 [Example 76, (S)-N-(5-ethyl-4-oxo-2,3,4,5-tetrahydro-pyrido[3,2-b][1,4]oxazepin-3-yl)-6-methyl-4-oxo-1-phenyl-1,4-dihydro-pyridazine-3-carboxamide]
- IC50 [1]: 5590 nM

SMILES: Cc1ccc(-n2nc(C(=O)N[C@H]3COc4cccnc4N(C)C3=O)c(=O)cc2C)cc1 [Example 77, (S)-6-methyl-N-(5-methyl-4-oxo-2,3,4,5-tetrahydropyrido[3,2-b][1,4]oxazepin-3-yl)-4-oxo-1-(p-tolyl)-1,4-dihydro-pyridazine-3-carboxamide]
- IC50 [1]: 26.5 nM

SMILES: Cc1cc(=O)c(C(=O)N[C@@H]2C(=O)N(C)c3ncccc3O[C@@H]2C)nn1-c1ccccc1 [Example 78, N-((2R,3S)-2,5-dimethyl-4-oxo-2,3,4,5-tetrahydropyrido[3,2-b]-[1,4]oxazepin-3-yl)-6-methyl-4-oxo-1-phenyl-1,4-dihydropyridazine-3-carboxamide]
- IC50 [1]: 150 nM

SMILES: Cc1cc(=O)c(C(=O)NC2CCc3ccccc3NC2=O)nn1-c1cncc(F)c1 (stereo not shown) [Example 79, 1-(5-fluoropyridin-3-yl)-6-methyl-4-oxo-N-(2-oxo-2,3,4,5-tetrahydro-1H-benzo[b]azepin-3-yl)-1,4-dihydropyridazine-3-carboxamide]
- IC50 [1]: 507 nM

SMILES: Cc1cc(=O)c(C(=O)N[C@@H]2C(=O)Nc3ncccc3O[C@@H]2C)nn1-c1ccccc1 [Example 80, 6-methyl-N-((2R,3S)-2-methyl-4-oxo-2,3,4,5-tetrahydropyrido[3,2-b]-[1,4]oxazepin-3-yl)-4-oxo-1-phenyl-1,4-dihydropyridazine-3-carboxamide]
- IC50 [1]: 3710 nM

SMILES: COc1cc2c(cn1)N(C)C(=O)C(NC(=O)c1nn(-c3ccccc3)c(C)cc1=O)CC2 (stereo not shown) [Example 81, N-(7-methoxy-1-methyl-2-oxo-2,3,4,5-tetrahydro-1H-pyrido[3,4-b]azepin-3-yl)-6-methyl-4-oxo-1-phenyl-1,4-dihydropyridazine-3-carboxamide]
- IC50 [1]: 788 nM

SMILES: Cc1ccc(-n2nc(C(=O)N[C@H]3COc4cccnc4N(C)C3=O)c(=O)c(Cl)c2C)cc1F [Example 82, (S)-5-chloro-1-(3-fluoro-4-methyl-phenyl)-6-methyl-N-(5-methyl-4-oxo-2,3,4,5-tetrahydropyrido[3,2-b]-[1,4]oxazepin-3-yl)-4-oxo-1,4-dihydropyridazine-3-carboxamide]
- IC50 [1]: 56.4 nM
